The target of assay [1] is ICS (pro-IL-1β-derived epitope, 14 mer) (Homo sapiens, UniProt P01584, A117G). Description: Measured KD of the LEPB-ICS complex. The assay is classed as binding. An excerpt: Finally, the most rigorous tests for peptide-peptide interaction involve spectroscopic assays. These experiments provide quantitative data regarding the affinity of the LEP for the epitope target. For example, fluorescence polarization (Heyduk et al., 1996) can be employed. In this experiment, one of the peptides is synthesized with a covalently coupled fluorescein molecule. A low concentration of this species (usually 10^−8 M to 10^−10 M) is titrated with increasing amounts of a fusion protein containing the partner peptide. The increase in the polarization of the fluorescence as a result of binding of the low molecular weight fluorescein-peptide conjugate to the high molecular weight fusion protein is monitored.
The affinities of the isolated peptides for their epitope targets can be determined by a number of methods. These include fusion of one or both of the interacting peptides to heterologous proteins, followed by the binding of one of the fusions to an affinity resin. The affinity of the partner fusion protein for this resin is then determined. Another common technique is surface plasmon resonance, in which one of the interacting peptides or fusion proteins is immobilized on an appropriately modified gold surface, and the on and off rates of the partner peptide are measured using the commercially available BIAcore instrument or an equivalent. […]

In assay [2] the target is T1, GST fusion protein containing the target epitope (Homo sapiens, UniProt P01584, A117G).
T1 construct: made in house
Kind of assay: Far Western blot of DBD-LEP fusions probed with GST-epitope fusion protein. The assay is classed as binding. To be noted: extract of phage-resistant cells expressing DBD-LEP fusion; anti-GST antibody detection. As to the method: FIG. 5—“Far Western” blot protocol to eliminate false positives. An extract is prepared from phage-resistant cells that express the DBD-LEP fusion. This is electrophoresed through a denaturing gel, then blotted onto a membrane. This is probed with a GST fusion protein containing the target epitope, followed by labeled anti-GST antibody to visualize the site(s) of binding of the GST-peptide fusion protein.
The putative epitope-binding LEPs that survive the tests described above are then tested biochemically for epitope binding. […] This is done by expressing a GST fusion protein containing the target peptide at the C-terminus. This protein is then employed as a probe in a Far-Western blot experiment (FIG. 5). Crude extracts from cells that express the Repressor DBD-LEP fusion are electrophoresed through a denaturing gel and blotted onto a suitable surface, such a nitrocellulose. The blot is then probed with the GST-epitope fusion protein, followed by anti-GST antibody and finally an HRP-conjugated secondary to visualize the binding events. Lanes in which the band corresponding to the Repressor DBD-LEP is bound by the GST-epitope fusion protein are considered true hits.

Peptide text beside a SMILES is read from it.

`CC(C)C[C@H](NC(=O)[C@H](CCC(=O)O)NC(=O)[C@H](C)NC(=O)[C@H](CCC(=O)O)NC(=O)[C@H](CCCCN)NC(=O)[C@H](CCCNC(=N)N)NC(=O)[C@H](C)NC(=O)[C@@H](N)CCCCN)C(=O)N[C@@H](C)C(=O)N[C@@H](C)C(=O)N[C@@H](C)C(=O)N[C@H](C(=O)N[C@@H](C)C(=O)N[C@@H](CCC(=O)O)C(=O)N[C@@H](CCC(N)=O)C(=O)O)[C@@H](C)O` [LEPB] (H-KARKEAELAAATAEQ-OH) came in with a Kd in assay [1] of 2000 nM.

With “PCHLNCSLQTLSPTRTTPRKHCKHCFKTLSEKMKWN [LEPD]”, the “Far Western blot signal” value in assay [2] is “weak or unobservable signals”.
